Assay results taken from publication PMC3113701 (Nature communications, 2010).
≈ marks a conversion by molar mass, not a printed value. Entries after “also recorded” stand apart in the source; their conditions may differ. Read-outs that look alike come from different tables or passages of the source. Each block holds one compound with its values, some of them ahead of it.

Legend:
[1] = system: NR2A with ATD-S1 linker (L) of NR2D; test: Oocyte recording of NR2A with NR2D ATD-S1 linker; assay type: cell-based, rat; details: oocytes
[2] = system: 2A-(2D L+S1M1M2M3S2) chimeric receptor; test: Oocyte recording of chimera 2A-; assay type: cell-based, rat; details: 10 μM CIQ plus 100 μM glutamate and 30 μM glycine
[3] = system: 2A-(2D L+S1M1b) chimeric receptor; test: Oocyte recording of chimera 2A-; assay type: cell-based, rat; details: 10 μM CIQ plus 100 μM glutamate and 30 μM glycine
[4] = system: GluR5 receptor; test: Two-electrode voltage-clamp, GluR5 in oocytes; assay type: cell-based; details: 10 μM CIQ; 100 μM glutamate; concanavalin-A pretreated oocytes
[5] = system: NMDA receptors containing the NR2C or NR2D subunit; test: Potentiation of NR2C- or NR2D-containing NMDA receptors; assay type: cell-based; details: read-out: EC50 for enhancement of receptor responses; abstract summary value
[6] = system: NR1/NR2A*/NR2D triheteromeric receptors; test: Triheteromeric NMDA receptors in oocytes, NR1/NR2A*/NR2D; details: 10 μM CIQ; 10 mM glutamate, 100 μM glycine, 1 mM Mg2+
[7] = system: NR1/NR2A receptors; test: Two-electrode voltage-clamp, recombinant NR1/NR2A in Xenopus oocytes; assay type: cell-based, rat
[8] = molecular target: T1, NR1/NR2D receptors (Rattus norvegicus, UniProt Q62645); test: Whole-cell voltage-clamp, NR1/NR2D in HEK 293 cells; assay type: cell-based
[9] = system: 2A-(2D L+S1M1c) chimeric receptor; test: Oocyte recording of chimera 2A-; assay type: cell-based, rat; details: 10 μM CIQ plus 100 μM glutamate and 30 μM glycine
[10] = system: GluR4 receptor; test: Two-electrode voltage-clamp, GluR4 in oocytes; assay type: cell-based; details: 10 μM CIQ, 100 μM glutamate
[11] = system: GluR2 receptor; test: Two-electrode voltage-clamp, GluR2 in oocytes; assay type: cell-based; details: 10 μM CIQ, 100 μM glutamate
[12] = molecular target: T1, NR1/NR2D receptors; test: Single channel recording, outside-out patches with NR1/NR2D; assay type: cell-based; details: 10 μM CIQ
[13] = system: 2A-(2D L+S1M1) chimeric receptor; test: Oocyte recording of chimera 2A-; assay type: cell-based, rat; details: 10 μM CIQ plus 100 μM glutamate and 30 μM glycine
[14] = molecular target: T2, NR1/NR2C receptors (Rattus norvegicus, UniProt Q00961); test: Whole-cell voltage-clamp, NR1/NR2C in HEK 293 cells; assay type: cell-based
[15] = molecular target: NR1/NR2C receptors (Rattus norvegicus, UniProt P35439+Q00961); test: as above; assay type: cell-based
[16] = system: NR1/NR2A*/NR2B triheteromeric receptors; test: Triheteromeric NMDA receptors in oocytes, NR1/NR2A*/NR2B; details: 10 μM CIQ; 10 mM glutamate, 100 μM glycine, 1 mM Mg2+
[17] = system: NR1/NR2D(T592I); test: Oocyte recording of mutant NR1/NR2D; assay type: cell-based, rat; details: oocytes
[18] = system: native NMDA receptors in subthalamic neurons; assay type: cell-based, rat
[19] = system: NR2A with residues 590-594 of NR2D; test: Oocyte recording of NR2A with NR2D residues 590-594 alone; assay type: cell-based, rat; details: oocytes
[20] = Maximum solubility by nephelometer; assay type: physicochemical; details: kinetic from dmso stock
[21] = system: AMPA (GluR1) receptor; test: Two-electrode voltage-clamp, AMPA receptor GluR1 in oocytes; assay type: cell-based; details: 10 μM CIQ, 100 μM glutamate
[22] = system: native NMDA receptors in CA1 hippocampal pyramidal neurons; assay type: cell-based, rat; details: 20 μM CIQ; pressure-applied NMDA and glycine
[23] = molecular target: T1, NR1/NR2D receptors; test: Two-electrode voltage-clamp, recombinant NR1/NR2D in Xenopus oocytes; assay type: cell-based; details: for Slope: Control (no CIQ)
[24] = system: NR2A(I567T) with linker (L) between NR2D ATD and S1; test: Oocyte recording of NR2A; assay type: cell-based, rat; details: 10 μM CIQ; oocytes
[25] = system: NR2A-(2D L+M1e) chimeric receptor; test: Oocyte recording of chimera NR2A-; assay type: cell-based, rat; details: 10 μM CIQ plus 100 μM glutamate and 30 μM glycine
[26] = system: 2D-(2A ATD+L) chimeric receptor; test: Oocyte recording of chimera 2D-; assay type: cell-based, rat; details: oocytes
[27] = system: 2D-(2A L) chimeric receptor; test: Oocyte recording of chimera 2D-; assay type: cell-based, rat; details: oocytes
[28] = system: NR1/NR2A*/NR2C triheteromeric receptors; test: Triheteromeric NMDA receptors in oocytes, NR1/NR2A*/NR2C; details: 10 μM CIQ; 10 mM glutamate, 100 μM glycine, 1 mM Mg2+
[29] = system: kainate (GluR6) receptor; test: Two-electrode voltage-clamp, kainate receptor GluR6 in oocytes; assay type: cell-based; details: 10 μM CIQ; 100 μM glutamate; concanavalin-A pretreated oocytes
[30] = system: NR1/NR2B receptors; test: Whole-cell voltage-clamp, NR1/NR2B in HEK 293 cells; assay type: cell-based, rat; details: 20 μM CIQ
[31] = system: GluR3 receptor; test: Two-electrode voltage-clamp, GluR3 in oocytes; assay type: cell-based; details: 10 μM CIQ, 100 μM glutamate
[32] = molecular target: T2, NR1/NR2C receptors; test: Two-electrode voltage-clamp, recombinant NR1/NR2C in Xenopus oocytes; assay type: cell-based; details: for Slope: Control (no CIQ)
[33] = system: NR1/NR2B receptors; test: Two-electrode voltage-clamp, recombinant NR1/NR2B in Xenopus oocytes; assay type: cell-based, rat
[34] = system: NR1/NR2A* receptors; test: Oocyte recording of NR1/NR2A*; details: oocytes; triheteromeric recording conditions
[35] = system: NR1/NR2A receptors; test: Whole-cell voltage-clamp, NR1/NR2A in HEK 293 cells; assay type: cell-based, rat; details: concentration-effect relationship
[36] = 10 μM CIQ in 100 μM glutamate and 30 μM glycine, HEK 293, 23°C
[37] = HEK 293 cells, single exponential
[38] = following pre-application of CIQ, HEK 293
[39] = 10 μM CIQ plus 100 μM glutamate and 30 μM glycine
[40] = read-out: agonist EC50, + 20 μM CIQ
[41] = read-out: agonist EC50, Control (no CIQ)

T2 sequence (Q00961 20-1237, other chains not shown): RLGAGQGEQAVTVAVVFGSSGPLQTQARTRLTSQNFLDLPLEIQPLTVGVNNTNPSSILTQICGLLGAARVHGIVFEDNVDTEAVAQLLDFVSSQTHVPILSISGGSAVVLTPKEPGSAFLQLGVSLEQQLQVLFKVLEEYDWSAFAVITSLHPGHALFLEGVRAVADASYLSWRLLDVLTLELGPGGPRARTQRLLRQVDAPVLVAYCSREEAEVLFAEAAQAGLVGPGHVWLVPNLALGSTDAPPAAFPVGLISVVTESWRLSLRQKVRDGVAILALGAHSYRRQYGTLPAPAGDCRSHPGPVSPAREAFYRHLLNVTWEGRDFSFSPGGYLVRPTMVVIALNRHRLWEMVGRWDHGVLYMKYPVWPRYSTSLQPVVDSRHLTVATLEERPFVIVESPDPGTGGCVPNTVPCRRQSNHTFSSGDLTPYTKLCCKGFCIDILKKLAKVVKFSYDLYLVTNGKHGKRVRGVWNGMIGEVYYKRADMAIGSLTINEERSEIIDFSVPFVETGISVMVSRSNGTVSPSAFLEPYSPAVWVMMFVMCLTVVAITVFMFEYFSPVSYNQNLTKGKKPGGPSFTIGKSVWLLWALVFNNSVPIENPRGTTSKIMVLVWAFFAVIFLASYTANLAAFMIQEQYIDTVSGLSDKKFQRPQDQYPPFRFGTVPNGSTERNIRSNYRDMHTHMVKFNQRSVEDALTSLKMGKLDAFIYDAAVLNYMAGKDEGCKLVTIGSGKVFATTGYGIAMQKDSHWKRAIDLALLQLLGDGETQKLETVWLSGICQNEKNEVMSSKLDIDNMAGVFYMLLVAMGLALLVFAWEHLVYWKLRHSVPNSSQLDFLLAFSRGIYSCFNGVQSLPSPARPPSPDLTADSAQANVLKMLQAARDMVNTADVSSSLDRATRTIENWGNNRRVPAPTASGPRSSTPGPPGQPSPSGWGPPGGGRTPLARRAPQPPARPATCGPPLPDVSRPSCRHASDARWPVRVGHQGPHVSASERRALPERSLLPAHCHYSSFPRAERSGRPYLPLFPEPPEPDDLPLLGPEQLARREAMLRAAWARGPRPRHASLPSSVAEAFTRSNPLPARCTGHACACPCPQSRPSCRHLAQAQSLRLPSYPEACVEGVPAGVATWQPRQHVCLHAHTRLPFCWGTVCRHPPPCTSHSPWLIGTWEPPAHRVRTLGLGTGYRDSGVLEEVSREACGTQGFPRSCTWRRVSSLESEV
T1 sequence (Q62645 28-1323, other chains not shown): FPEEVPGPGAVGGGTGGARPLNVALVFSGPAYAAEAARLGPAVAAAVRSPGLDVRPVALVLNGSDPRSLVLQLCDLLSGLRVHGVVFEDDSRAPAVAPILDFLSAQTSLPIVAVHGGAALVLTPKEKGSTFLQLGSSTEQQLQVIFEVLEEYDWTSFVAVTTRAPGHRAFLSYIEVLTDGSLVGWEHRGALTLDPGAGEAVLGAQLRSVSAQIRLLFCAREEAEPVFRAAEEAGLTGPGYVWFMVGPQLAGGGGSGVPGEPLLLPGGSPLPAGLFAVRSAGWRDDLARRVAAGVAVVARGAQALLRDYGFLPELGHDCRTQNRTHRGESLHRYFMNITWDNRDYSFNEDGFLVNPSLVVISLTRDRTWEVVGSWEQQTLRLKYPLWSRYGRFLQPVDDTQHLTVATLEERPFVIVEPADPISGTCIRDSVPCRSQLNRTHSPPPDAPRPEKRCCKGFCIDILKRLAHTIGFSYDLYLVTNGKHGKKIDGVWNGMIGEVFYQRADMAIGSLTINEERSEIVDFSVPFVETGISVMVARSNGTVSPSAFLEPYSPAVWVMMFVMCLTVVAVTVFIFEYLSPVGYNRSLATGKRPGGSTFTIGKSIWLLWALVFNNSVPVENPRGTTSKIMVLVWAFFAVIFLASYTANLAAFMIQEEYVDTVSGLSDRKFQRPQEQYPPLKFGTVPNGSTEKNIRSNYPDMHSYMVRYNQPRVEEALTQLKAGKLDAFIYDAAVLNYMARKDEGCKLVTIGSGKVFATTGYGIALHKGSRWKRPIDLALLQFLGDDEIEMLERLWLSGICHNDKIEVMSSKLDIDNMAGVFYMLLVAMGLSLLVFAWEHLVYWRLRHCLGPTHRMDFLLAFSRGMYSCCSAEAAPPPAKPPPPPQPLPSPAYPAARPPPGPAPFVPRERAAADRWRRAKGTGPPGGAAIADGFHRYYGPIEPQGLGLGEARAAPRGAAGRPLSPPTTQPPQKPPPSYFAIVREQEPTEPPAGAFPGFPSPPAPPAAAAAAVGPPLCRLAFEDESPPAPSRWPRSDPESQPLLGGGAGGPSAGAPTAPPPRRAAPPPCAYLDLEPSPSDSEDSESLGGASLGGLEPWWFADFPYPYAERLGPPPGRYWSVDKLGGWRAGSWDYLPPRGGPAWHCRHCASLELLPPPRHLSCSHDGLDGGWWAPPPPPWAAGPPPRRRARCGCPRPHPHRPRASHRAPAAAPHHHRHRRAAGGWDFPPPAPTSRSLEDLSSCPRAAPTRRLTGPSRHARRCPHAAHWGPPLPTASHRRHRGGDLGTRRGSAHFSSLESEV
NR1/NR2C receptors (Rattus norvegicus, UniProt P35439+Q00961), sequence (Q00961 20-1237, other chains not shown): as the sequence (Q00961 20-1237, other chains not shown) above

- CIQ activity at chimeric receptor [1]: did not show any activity
- CIQ sensitivity of chimeric receptor [2]: CIQ sensitivity is observed
- CIQ sensitivity of chimeric receptor [3]: CIQ sensitivity is observed
- effect on receptor response [4]: not significantly different than control
- EC50 [5]: 3000 nM
- effect on triheteromeric receptor response [6]: significantly potentiated
- potentiation of NMDA-activated response ([7]; 100 μM NMDA plus 30 μM glycine): did not potentiate
- response compared to control [8, 36]: 180%
- potentiation of response to NMDA at 33°C ([8]; 10 μM CIQ, 33°C, HEK 293 cells): 200±20%
- maximal potentiation ([8]; HEK 293 cells): 180%
- de-potentiation time constant tau [8, 37]: 6.5 ± 0.7 s
- 10-90% rise time of receptor response [8, 38]: 15 ± 2 ms
- CIQ sensitivity of chimeric receptor [9]: CIQ sensitivity is observed
- effect on receptor response [10]: not significantly different than control
- effect on receptor response [11]: not significantly different than control
- effect on the reversal potential [12]: no detectable effect
- mean shut time, % of control [12]: 75 ± 8 % of control
- closed duration area, component 1 ([12]; composite of 6 patches): 37
- closed duration area, component 2 ([12]; composite of 6 patches): 18
- closed duration area, component 3 ([12]; composite of 6 patches): 12
- closed duration area, component 4 ([12]; composite of 6 patches): 18
- closed duration area, component 5 ([12]; composite of 6 patches): 15
- closed duration area, component 6 ([12]; composite of 6 patches): 0.75
- closed duration time constant, component 1 ([12]; composite of 6 patches): 0.026 ms
- closed duration time constant, component 2 ([12]; composite of 6 patches): 0.23 ms
- closed duration time constant, component 3 ([12]; composite of 6 patches): 0.73 ms
- closed duration time constant, component 4 ([12]; composite of 6 patches): 3.4 ms
- closed duration time constant, component 5 ([12]; composite of 6 patches): 12 ms
- closed duration time constant, component 6 ([12]; composite of 6 patches): 39 ms
- open period time constant 1, composite distribution ([12]; composite of 6 patches): 0.036 ms
- open period time constant 2, composite distribution ([12]; composite of 6 patches): 0.63 ms
- CIQ sensitivity of chimeric receptor [13]: CIQ sensitivity is observed
- response compared to control [14, 36]: 180%
- maximal potentiation ([14]; HEK 293 cells): 180%
- de-potentiation time constant tau [14, 37]: 4.0 ± 0.7 s
- 10-90% rise time of receptor response [14, 38]: 9 ± 1 ms
- EC50 [15]: 1700 nM
- CIQ activity at chimeric receptor [19]: did not show any activity
- solubility [20]: 20 µM (≈ 9.36 µg/mL)
- response in the presence of CIQ vs control [23, 39]: significantly different than in control
- potentiation of NMDA-activated response ([23]; 100 μM NMDA and 30 μM glycine): 205 ± 5%
- effect of CIQ alone (no agonist) ([23]; CIQ alone): no effect
- potentiation of receptor response, % of control ([23]; CIQ dissolved in 2-hydroxypropyl-beta-cyclodextrin solution (1% w/v), no DMSO): 144 ± 3 % of control
- maximal potentiation ([23]; response without CIQ = 100%): 211 ± 7%
- change of CIQ potentiation vs NR2D [27]: did not significantly alter
- effect on triheteromeric receptor response [28]: significantly potentiated
- effect on receptor response [31]: not significantly different than control
- response in the presence of CIQ vs control [32, 39]: significantly different than in control
- potentiation of NMDA-activated response ([32]; 100 μM NMDA and 30 μM glycine): 233 ± 13%
- effect of CIQ alone (no agonist) ([32]; CIQ alone): no effect
- maximal potentiation ([32]; response without CIQ = 100%): 197 ± 20%
- potentiation of NMDA-activated response ([33]; 100 μM NMDA plus 30 μM glycine): did not potentiate
Compound: COc1ccc(OCC2c3cc(OC)c(OC)cc3CCN2C(=O)c2cccc(Cl)c2)cc1 (stereo not drawn) [CIQ, (3-chlorophenyl)(6,7-dimethoxy-1-((4-methoxyphenoxy)methyl)-3,4-dihydroisoquinolin-2(1H)-yl)methanone]
- effect on receptor response ([7]; 10 μM CIQ): did not alter; also recorded: without affecting
- effect on triheteromeric receptor response [16]: not potentiated; also recorded: no effect
- CIQ potentiation of mutant receptor [17]: completely abolished; also recorded: no longer potentiated
- potentiation of NMDA-activated responses compared to control ([18]; 20 μM CIQ bath applied, −60 mV, 0.2 mM Mg2+): 230 ± 29%
- NMDA-activated response after wash, of control amplitude ([18]; after washout of 20 μM CIQ): 102 ± 11%
- effect on receptor response [21]: did not alter; also recorded: not significantly different than control
- potentiation of NMDA-activated responses [22]: did not potentiate
- potentiation of mutant receptor response [24]: 135 ± 5%
- CIQ sensitivity of chimeric receptor [25]: potentiated; also recorded: CIQ sensitivity is observed
- change of CIQ potentiation vs NR2D [26]: attenuated; also recorded: reduced level of potentiation
- effect on receptor response [29]: did not alter; also recorded: not significantly different than control
- reduction in the response [30]: 25%
- effect on receptor response ([33]; 10 μM CIQ): did not alter; also recorded: without affecting
- effect on receptor response [34]: no detectable effect; also recorded: not potentiated
- effect on receptor response [35]: no effect

Compound: N[C@@H](CCC(=O)O)C(=O)O [Glutamate, reference compound]
- Slope [23]: 1.5
- EC50 [23, 40]: 240 ± 20 nM
- EC50 [23, 41]: 300 ± 30 nM
- Slope [32]: 1.5
- EC50 [32, 40]: 620 ± 40 nM
- EC50 [32, 41]: 740 ± 60 nM

Compound: NCC(=O)O [Glycine, reference compound]
- Slope [23]: 1.5
- Slope [32]: 1.5
